Solubility data for two compounds are collected here from patent EP2481744A1, “Aromatic bis-phosphoramidate additives as flame retardants for polymers” (EMPA Eidgenössische Materialprüfungs- und Forschungsanstalt, priority 2011, dated 2012).

Molecules are shown by their SMILES. In brackets after ≈: the same amount, converted by molar mass. Read-outs that look alike come from different tables or passages of the source.

For data set [1] the following is noted: deionized water, 16 h.
Data set [2] in a line: Solubility in deionized water (shaking flask, phosphorus content by ICP-OES). To be noted: 0.5 gm in 50 ml deionized water, 21 °C, 16 hrs.

The term Solubility denotes the concentration that dissolves in the medium under given conditions. Low readings indicate little dissolved substance, high ones much dissolved substance. Consider `CCOP(=O)(Nc1ccc(NP(=O)(OCC)OCC)cc1)OCC` [p-PAPTEE, Phosphoramidic acid, 1,4-phenylenebis-, tetraethyl ester], for which the Solubility in data set [1] is 0.047 g/L (≈ 124 µM).
Turning to `CC(C)OP(=O)(Nc1ccc(NP(=O)(OC(C)C)OC(C)C)cc1)OC(C)C` [p-PAPTiPE, Phosphoramidic acid, 1,4-phenylenebis-, tetra isopropyl ester], in data set [2], the Solubility came out at 0.056 g/L (≈ 128 µM).
